US12391679B2, “Benzamide-substituted bicyclic imidazo- and pyrazolo-fused -pyridine, -pyrimide, and -pyridazine compounds for treatment of inflammatory diseases” (ONCO3R Therapeutics BV, priority 2019, dated 2025)

How the values were obtained:
Format in all cases: biochemical
SIK2 = molecular target: T1, SIK2 (Homo sapiens, UniProt Q9H0K1); assay: ADP-Glo kinase assay, SIK2
T1 construct: purchased ThermoFisher Scientific PV4792
Summary of the method: (§1)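 Each SIK isoform is incubated with substrate and ATP for 2 h at room temperature, after which residual ATP is depleted and the ADP formed is quantified by luminescence.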

SIK1 = molecular target: T2, SIK1 (Homo sapiens, UniProt P57059); assay: ADP-Glo kinase assay, SIK1
T2 construct: purchased Carna Biosciences 02-131
Summary of the method: as §1

SIK3 = molecular target: T3, SIK3 (Homo sapiens, UniProt Q9Y2K2); assay: ADP-Glo kinase assay, SIK3
T3 construct: purchased SignalChem S12-11G-100
Summary of the method: as §1

T2 sequence (P57059 whole entry): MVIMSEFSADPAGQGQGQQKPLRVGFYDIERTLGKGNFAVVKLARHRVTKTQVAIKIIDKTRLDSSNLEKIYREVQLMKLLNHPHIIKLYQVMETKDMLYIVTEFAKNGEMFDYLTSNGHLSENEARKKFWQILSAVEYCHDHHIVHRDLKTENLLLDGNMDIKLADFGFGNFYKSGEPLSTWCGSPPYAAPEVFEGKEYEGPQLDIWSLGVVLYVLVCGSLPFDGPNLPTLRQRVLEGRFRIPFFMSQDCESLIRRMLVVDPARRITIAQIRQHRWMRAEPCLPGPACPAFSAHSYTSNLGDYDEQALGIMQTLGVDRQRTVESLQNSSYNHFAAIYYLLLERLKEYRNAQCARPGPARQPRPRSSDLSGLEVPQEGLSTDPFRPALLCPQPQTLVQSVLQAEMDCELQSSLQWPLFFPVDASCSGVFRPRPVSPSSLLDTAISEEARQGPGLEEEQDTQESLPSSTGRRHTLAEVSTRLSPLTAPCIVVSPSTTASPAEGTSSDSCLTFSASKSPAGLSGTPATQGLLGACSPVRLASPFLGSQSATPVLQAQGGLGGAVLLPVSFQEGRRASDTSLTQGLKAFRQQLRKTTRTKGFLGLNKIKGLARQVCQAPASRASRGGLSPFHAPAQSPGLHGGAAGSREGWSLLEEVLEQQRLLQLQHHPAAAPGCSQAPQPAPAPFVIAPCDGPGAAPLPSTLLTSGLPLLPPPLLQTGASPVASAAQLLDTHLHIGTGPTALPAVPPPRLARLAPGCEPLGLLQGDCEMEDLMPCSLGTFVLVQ
T1 sequence (Q9H0K1 whole entry): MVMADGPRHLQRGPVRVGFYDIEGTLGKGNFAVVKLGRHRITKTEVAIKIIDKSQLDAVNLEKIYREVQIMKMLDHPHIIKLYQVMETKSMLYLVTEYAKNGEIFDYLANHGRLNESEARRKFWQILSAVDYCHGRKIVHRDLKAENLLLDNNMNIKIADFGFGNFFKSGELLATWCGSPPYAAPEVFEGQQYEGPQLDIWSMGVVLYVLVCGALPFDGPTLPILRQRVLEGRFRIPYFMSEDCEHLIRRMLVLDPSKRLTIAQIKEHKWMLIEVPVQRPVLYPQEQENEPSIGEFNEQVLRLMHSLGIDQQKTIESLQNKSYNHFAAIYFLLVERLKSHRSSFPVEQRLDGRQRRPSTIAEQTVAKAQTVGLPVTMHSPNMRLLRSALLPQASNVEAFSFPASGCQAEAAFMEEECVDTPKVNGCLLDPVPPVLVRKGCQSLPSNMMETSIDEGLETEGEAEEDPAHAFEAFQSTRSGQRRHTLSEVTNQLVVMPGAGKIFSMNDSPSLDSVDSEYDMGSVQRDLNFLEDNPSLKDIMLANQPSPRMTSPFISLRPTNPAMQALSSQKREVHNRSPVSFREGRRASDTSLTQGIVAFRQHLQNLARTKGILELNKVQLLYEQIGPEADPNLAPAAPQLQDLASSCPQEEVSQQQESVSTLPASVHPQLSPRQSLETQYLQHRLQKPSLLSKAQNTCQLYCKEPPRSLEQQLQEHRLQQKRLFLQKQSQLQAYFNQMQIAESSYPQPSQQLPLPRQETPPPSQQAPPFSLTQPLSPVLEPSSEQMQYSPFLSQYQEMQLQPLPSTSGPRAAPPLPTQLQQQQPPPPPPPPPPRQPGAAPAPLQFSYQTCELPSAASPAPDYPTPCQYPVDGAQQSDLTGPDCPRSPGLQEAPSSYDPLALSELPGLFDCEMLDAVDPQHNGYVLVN
T3 sequence (Q9Y2K2 59-365 limits assumed): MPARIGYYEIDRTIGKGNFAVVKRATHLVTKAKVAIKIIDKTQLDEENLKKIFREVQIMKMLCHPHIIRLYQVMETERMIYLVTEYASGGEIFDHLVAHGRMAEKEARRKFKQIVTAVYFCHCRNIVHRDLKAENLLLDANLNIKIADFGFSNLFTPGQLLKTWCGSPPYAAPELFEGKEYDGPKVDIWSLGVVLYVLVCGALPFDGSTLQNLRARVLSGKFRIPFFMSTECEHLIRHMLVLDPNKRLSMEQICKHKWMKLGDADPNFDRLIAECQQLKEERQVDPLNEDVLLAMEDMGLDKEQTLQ

Row | Compound | IC50 (SIK2) | IC50 (SIK1) | IC50 (SIK3)
1 | COc1cc(-c2cnc3cc(C4CCN4C)ccn23)cc(OC(F)F)c1C(=O)NC1CC1 (stereo not drawn) [Cpd 204, N-cyclopropyl-2-(difluoromethoxy)-6-methoxy-4-[7-(1-methylazetidin-2-yl)imidazo[1,2-a]pyridin-3-yl]benzamide] | > 0.5 µM | > 0.5 µM | 0.01 to 0.1 µM
2 | COc1cc(-c2cnc3cc(C(C)(O)CN(C)CCO)ccn23)cc(OC(F)F)c1C(=O)NC1CC1 (stereo not drawn) [Cpd 209, N-cyclopropyl-2-(difluoromethoxy)-4-[7-[1-hydroxy-2-[2-hydroxyethyl(methyl)amino]-1-methyl-ethyl]imidazo[1,2-a]pyridin-3-yl]-6-methoxy-benzamide] | > 0.5 µM | > 0.5 µM | 0.01 to 0.1 µM
3 | COc1cc(-c2cnc3cc(C4(C)CN(C)CCO4)ccn23)cc(OC(F)F)c1C(=O)NC1CC1 (stereo not drawn) [Cpd 210, N-cyclopropyl-2-(difluoromethoxy)-4-[7-(2,4-dimethylmorpholin-2-yl)imidazo[1,2-a]pyridin-3-yl]-6-methoxy-benzamide] | > 0.5 µM | > 0.5 µM | 0.01 to 0.1 µM
4 | COc1cc(-c2cnc3cc(C4(C)CN(C)CCO4)ccn23)cc(OC(F)F)c1C(=O)NCC(F)(F)F (stereo not drawn) [Cpd 214, 2-(difluoromethoxy)-4-[7-(2,4-dimethylmorpholin-2-yl)imidazo[1,2-a]pyridin-3-yl]-6-methoxy-N-(2,2,2-trifluoroethyl)benzamide] | > 0.5 µM | > 0.5 µM | 0.1 to 0.5 µM
5 | COc1cn2c(-c3cc(OC)c(C(=O)NC4CC4)c(OC(F)F)c3)cnc2cc1C1COC1 [Cpd 215, N-cyclopropyl-2-(difluoromethoxy)-6-methoxy-4-[6-methoxy-7-(oxetan-3-yl)imidazo[1,2-a]pyridin-3-yl]benzamide] | 0.1 to 0.5 µM | 0.1 to 0.5 µM | 0.01 to 0.1 µM
6 | COc1cc(-c2cnc3cc(C4(Cl)COC4)ccn23)cc(OC(F)F)c1C(=O)NC1CC1 [Cpd 217, 4-[7-(3-chlorooxetan-3-yl)imidazo[1,2-a]pyridin-3-yl]-N-cyclopropyl-2-(difluoromethoxy)-6-methoxy-benzamide] | 0.1 to 0.5 µM | > 0.5 µM | 0.01 to 0.1 µM
7 | COc1cc(-c2cnc3cc(C4(C)COCCO4)ccn23)cc(OC(F)F)c1C(=O)NC1CC1 (stereo not drawn) [Cpd 220, N-cyclopropyl-2-(difluoromethoxy)-6-methoxy-4-[7-(2-methyl-1,4-dioxan-2-yl)imidazo[1,2-a]pyridin-3-yl]benzamide] | > 0.5 µM | > 0.5 µM | 0.01 to 0.1 µM
8 | COc1cc(-c2cnc3cc(C4(N5CCOCC5)COC4)ccn23)cc(OC(F)F)c1C(=O)NC1CC1 [Cpd 222, N-cyclopropyl-2-(difluoromethoxy)-6-methoxy-4-[7-(3-morpholinooxetan-3-yl)imidazo[1,2-a]pyridin-3-yl]benzamide] | > 0.5 µM | > 0.5 µM | 0.1 to 0.5 µM
9 | COc1cc(-c2cnc3cc(C(C)(C)N4CCOCC4)ccn23)cc(OC(F)F)c1C(=O)NC1CC1 [Cpd 226, N-cyclopropyl-2-(difluoromethoxy)-6-methoxy-4-[7-(1-methyl-1-morpholino-ethyl)imidazo[1,2-a]pyridin-3-yl]benzamide] | > 0.5 µM | > 0.5 µM | 0.01 to 0.1 µM
10 | COc1cc(-c2cnn3cc(C(C)(C)c4noc(C)n4)ccc23)cc(OC(F)F)c1C(=O)NC1CC1 [Cpd 247, N-cyclopropyl-2-(difluoromethoxy)-6-methoxy-4-[6-[1-methyl-1-(5-methyl-1,2,4-oxadiazol-3-yl)ethyl]pyrazolo[1,5-a]pyridin-3-yl]benzamide] | > 0.5 µM | > 0.5 µM | 0.01 to 0.1 µM
11 | COc1cc(-c2cnn3cc(C(C)(C)C#N)ccc23)cc(F)c1C(=O)NC1CC1 [Cpd 252, 4-[6-(1-cyano-1-methyl-ethyl)pyrazolo[1,5-a]pyridin-3-yl]-N-cyclopropyl-2-fluoro-6-methoxy-benzamide] | > 0.5 µM | > 0.5 µM | 0.1 to 0.5 µM
12 | COc1cc(-c2cnn3cc(C(C)(C)C#N)ccc23)cc(OC)c1C(=O)NC1CC1 [Cpd 259, 4-[6-(1-cyano-1-methyl-ethyl)pyrazolo[1,5-a]pyridin-3-yl]-N-cyclopropyl-2,6-dimethoxy-benzamide] | > 0.5 µM | > 0.5 µM | 0.01 to 0.1 µM
13 | COCCOc1cc(-c2cnn3cc(C(C)(C)C#N)ccc23)cc(OC)c1C(=O)NC1CC1 [Cpd 260, 4-[6-(1-cyano-1-methyl-ethyl)pyrazolo[1,5-a]pyridin-3-yl]-N-cyclopropyl-2-methoxy-6-(2-methoxyethoxy)benzamide] | > 0.5 µM | > 0.5 µM | 0.1 to 0.5 µM
14 | COc1cc(-c2cnn3cc(C(C)(C)C#N)ccc23)cc(OCCO)c1C(=O)NC1CC1 [Cpd 263, 4-[6-(1-cyano-1-methyl-ethyl)pyrazolo[1,5-a]pyridin-3-yl]-N-cyclopropyl-2-(2-hydroxyethoxy)-6-methoxy-benzamide] | > 0.5 µM | > 0.5 µM | 0.1 to 0.5 µM
15 | COc1cc(-c2cnn3cc(C4(C(=O)N5CCOCC5)CCC4)ccc23)cc(OC(F)F)c1C(=O)N[C@@H]1C[C@@H]1F [Cpd 274, 2-(difluoromethoxy)-N-[(1R,2S)-2-fluorocyclopropyl]-6-methoxy-4-[6-[1-(morpholine-4-carbonyl)cyclobutyl]pyrazolo[1,5-a]pyridin-3-yl]benzamide] | > 0.5 µM | > 0.5 µM | 0.1 to 0.5 µM

The next lines start with the values.

Row | IC50 (SIK2) | IC50 (SIK1) | IC50 (SIK3) | Compound
16 | > 0.5 µM | > 0.5 µM | 0.01 to 0.1 µM | COc1cc(-c2cnn3cc(C(C)(C)OCCO)ccc23)cc(OC(F)F)c1C(=O)NC1CC1 [Cpd 239, N-cyclopropyl-2-(difluoromethoxy)-4-[6-[1-(2-hydroxyethoxy)-1-methyl-ethyl]pyrazolo[1,5-a]pyridin-3-yl]-6-methoxy-benzamide]
17 | > 0.5 µM | > 0.5 µM | 0.01 to 0.1 µM | COc1cc(-c2cnn3cc(C(C)(C)C(N)=O)ccc23)cc(OC(F)F)c1C(=O)NC1CC1 [Cpd 244, 4-[6-(2-amino-1,1-dimethyl-2-oxo-ethyl)pyrazolo[1,5-a]pyridin-3-yl]-N-cyclopropyl-2-(difluoromethoxy)-6-methoxy-benzamide]
18 | > 0.5 µM | > 0.5 µM | 0.01 to 0.1 µM | COc1cc(-c2cnn3cc(C(C)(C)S(C)(=O)=O)ccc23)cc(OC(F)F)c1C(=O)N[C@@H]1C[C@@H]1F [Cpd 246, 2-(difluoromethoxy)-N-[(1R,2S)-2-fluorocyclopropyl]-6-methoxy-4-[6-(1-methyl-1-methylsulfonyl-ethyl)pyrazolo[1,5-a]pyridin-3-yl]benzamide]
19 | > 0.5 µM | > 0.5 µM | 0.01 to 0.1 µM | CCNC(=O)C(C)(C)c1ccc2c(-c3cc(OC)c(C(=O)NC4CC4)c(OC(F)F)c3)cnn2c1 [Cpd 249, N-cyclopropyl-2-(difluoromethoxy)-4-[6-[2-(ethylamino)-1,1-dimethyl-2-oxo-ethyl]pyrazolo[1,5-a]pyridin-3-yl]-6-methoxy-benzamide]
20 | > 0.5 µM | > 0.5 µM | 0.01 to 0.1 µM | CCCCOC(=O)NC(C)(C)c1ccc2c(-c3cc(OC)c(C(=O)N[C@@H]4C[C@@H]4F)c(OC(F)F)c3)cnn2c1 [Cpd 264, butyl N-[1-[3-[3-(difluoromethoxy)-4-[[(1R,2S)-2-fluorocyclopropyl]carbamoyl]-5-methoxy-phenyl]pyrazolo[1,5-a]pyridin-6-yl]-1-methyl-ethyl]carbamate]
21 | > 0.5 µM | > 0.5 µM | 0.01 to 0.1 µM | COc1cc(-c2cnn3cc(C4(NCC#N)CCC4)ccc23)cc(OC(F)F)c1C(=O)N[C@@H]1C[C@@H]1F [Cpd 270, 4-[6-[1-(cyanomethylamino)cyclobutyl]pyrazolo[1,5-a]pyridin-3-yl]-2-(difluoromethoxy)-N-[(1R,2S)-2-fluorocyclopropyl]-6-methoxy-benzamide]
22 | > 0.5 µM | > 0.5 µM | 0.01 to 0.1 µM | COc1cc(-c2cnn3cc(C4(NCC(F)F)CCC4)ccc23)cc(OC(F)F)c1C(=O)N[C@@H]1C[C@@H]1F [Cpd 271, 4-[6-[1-(2,2-difluoroethylamino)cyclobutyl]pyrazolo[1,5-a]pyridin-3-yl]-2-(difluoromethoxy)-N-[(1R,2S)-2-fluorocyclopropyl]-6-methoxy-benzamide]
23 | > 0.5 µM | > 0.5 µM | 0.01 to 0.1 µM | CCN(CC)CC(C)(C)c1ccc2c(-c3cc(OC)c(C(=O)N[C@@H]4C[C@@H]4F)c(OC(F)F)c3)cnn2c1 [Cpd 276, 4-[6-[2-(diethylamino)-1,1-dimethyl-ethyl]pyrazolo[1,5-a]pyridin-3-yl]-2-(difluoromethoxy)-N-[(1R,2S)-2-fluorocyclopropyl]-6-methoxy-benzamide]
